Data as given in ChEMBL document CHEMBL4665751, “Discovery of Clinical Candidate (5-(3-(4-Chlorophenoxy)prop-1-yn-1-yl)-3-hydroxypicolinoyl)glycine, an Orally Bioavailable Prolyl Hydroxylase Inhibitor for the Treatment of Anemia” (J Med Chem, 2020).
Activity calls are given as the source filed them. The rule behind the calls is not given here.

Legend:
[1] = In vivo inhibition of PHD2 in C57BL/6 mouse assessed as increase in EPO plasma level by measuring EPO level at 15 mg/kg, iv measured after 4 hrs by ELISA; format: functional
Egl nine homolog 1 = Egl nine homolog 1 (Homo sapiens, UniProt Q9GZT9); assay: Inhibition of FITC-HIF1alpha (556 to 574 residues) binding to PHD2 (181 to 426 residues) (unknown origin) by fluorescence polarization assay
Sequence of Egl nine homolog 1 (Q9GZT9 whole entry, the tested form may be a part): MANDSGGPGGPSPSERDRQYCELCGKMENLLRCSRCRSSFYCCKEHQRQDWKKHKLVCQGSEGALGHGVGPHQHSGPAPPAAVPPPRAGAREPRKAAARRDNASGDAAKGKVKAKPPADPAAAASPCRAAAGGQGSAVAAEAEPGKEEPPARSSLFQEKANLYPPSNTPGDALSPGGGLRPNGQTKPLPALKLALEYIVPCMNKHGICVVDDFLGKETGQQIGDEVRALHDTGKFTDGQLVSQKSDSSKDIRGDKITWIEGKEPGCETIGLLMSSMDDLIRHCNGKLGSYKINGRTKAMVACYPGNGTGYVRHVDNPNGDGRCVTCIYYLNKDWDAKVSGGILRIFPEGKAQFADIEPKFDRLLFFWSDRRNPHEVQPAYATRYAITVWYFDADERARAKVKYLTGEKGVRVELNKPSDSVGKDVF

Mus musculus [2] = assay: In vivo inhibition of PHD2 in C57BL/6 mouse assessed as upregulation of EPO plasma level by measuring EPO level at 15 mg/kg, po measured after 4 hrs by ELISA; format: functional, organism-based
Mus musculus [3] = assay: Antianemic activity in cisplatin-induced C57BL/6 mouse anemia model assessed as improvement in anemia at 10 mg/kg, po administered every other day for 1 month; format: functional; conditions: time 1 months, 730 h
Mus musculus [4] = assay: Antianemic activity in cisplatin-induced C57BL/6 mouse anemia model assessed as increase in haemoglobin level administered orally every other day for 1 month; format: functional, organism-based; conditions: dose mg/kg 10-25, time 1.0 months
Mus musculus [5] = assay: In vivo inhibition of PHD2 in po dosed C57BL/6 mouse assessed as upregulation of EPO plasma level administered 4 times for 3 days by ELISA; format: functional, organism-based; conditions: dose mg/kg 5-50, time 3.0 day
Mus musculus [6] = assay: Antianemic activity in cisplatin-induced C57BL/6 mouse anemia model assessed as improvement in anemia at 25 mg/kg, po administered every other day for 1 month; format: functional; conditions: time 1 months, 730 h
Mus musculus [7] = assay: Induction of erythropoiesis in po dosed C57BL/6 mouse assessed as increase in red blood cell count administered thrice for 3 days measured 4 hrs post last dose; format: functional, organism-based; conditions: dose mg/kg 5-50, time 72.0 hrs

SMILES	IC50 (Egl nine homolog 1)	further results
O=C(O)CNC(=O)c1ncc(C#CCOc2ccccc2Cl)cc1O	–	Activity [1]: >1000 pg/mL
O=C(O)CNC(=O)c1ncc(C#CCOc2cccc(Cl)c2)cc1O	587 nM	–
Cc1nc(C(=O)NCC(=O)O)c(O)c2ccc(Oc3ccccc3)cc12 [ROXADUSTAT]	–	inhibition (Mus musculus [2]): Active; Activity (Mus musculus [3]): 86.4%; Activity (Mus musculus [4]): Active; inhibition (Mus musculus [5]): Dose-dependent effect; Activity (Mus musculus [6]): 115.2%; Activity (Mus musculus [7]): Dose-dependent effect
O=C(O)CNC(=O)c1ncc(C#CCOc2ccccc2C(F)(F)F)cc1O	1070 nM	–
O=C(O)CNC(=O)c1ncc(C#CCOc2ccc(-c3ccccc3)cc2)cc1O	825 nM	–
O=C(O)CNC(=O)c1ncc(C#CCOc2cccc(C(F)(F)F)c2)cc1O	877 nM	–
CN(CC#Cc1cnc(C(=O)NCC(=O)O)c(O)c1)c1ccccc1	454 nM	–
COc1ccc(OCC#Cc2cnc(C(=O)NCC(=O)O)c(O)c2)cc1	–	Activity [1]: >1000 pg/mL

Further compounds by falling IC50 (Egl nine homolog 1), results first:

IC50 (Egl nine homolog 1)	SMILES	further results
428 nM	COc1cccc(OCC#Cc2cnc(C(=O)NCC(=O)O)c(O)c2)c1	–
408 nM	O=C(O)CNC(=O)c1ncc(C#CCOCCc2ccc(Cl)cc2)cc1O	–
346 nM	O=C(O)CNC(=O)c1ncc(C#CCOc2cccc3ccccc23)cc1O	–
263 nM	N#Cc1ccc(OCC#Cc2cnc(C(=O)NCC(=O)O)c(O)c2)cc1	–
256 nM	O=C(O)CNC(=O)c1ncc(C#CCOc2cccc(F)c2)cc1O	–
218 nM	COc1ccccc1OCC#Cc1cnc(C(=O)NCC(=O)O)c(O)c1	–
125 nM	Cc1cccc(OCC#Cc2cnc(C(=O)NCC(=O)O)c(O)c2)c1	Activity [1]: >1000 pg/mL
84.3 nM	O=C(O)CNC(=O)c1ncc(C#CCOCc2ccc(Cl)cc2)cc1O	–
